From US20170320870A1 (Medical Research Council Technology, priority 2009, published 2017)

biological target: T1, LRRK2 wild type (recombinant human, catalytic domain amino acids 970-2527, GST-tagged) (Homo sapiens, UniProt Q5S007); assay: LRRK2 wild type protein kinase assay ([γ-33P] ATP, peptide substrate […]), IC50; type: biochemical; settings: LRRK2 (variant not given); read-out: Potency score, LRRK2 IC50
T1 construct: The wild type used was recombinant human, catalytic domain (amino acids 970-2527) GST-tagged, expressed in insect cells; GST; purchased Invitrogen Corporation PV4873; host or cells: insect cells
In short: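 IC50 derived from duplicate 10-point titrations, with 33P incorporation into a 100 μM peptide counted after P81 filter capture. Roughly 5 nM unactivated kinase reacted with Mg/[γ-33P]ATP for 180 min at room temperature (~21 °C), pH 7.5 Tris buffer containing 10 mM MgCl2, EGTA and DTT; acid-quenched.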

T1 sequence (Q5S007 970-2527): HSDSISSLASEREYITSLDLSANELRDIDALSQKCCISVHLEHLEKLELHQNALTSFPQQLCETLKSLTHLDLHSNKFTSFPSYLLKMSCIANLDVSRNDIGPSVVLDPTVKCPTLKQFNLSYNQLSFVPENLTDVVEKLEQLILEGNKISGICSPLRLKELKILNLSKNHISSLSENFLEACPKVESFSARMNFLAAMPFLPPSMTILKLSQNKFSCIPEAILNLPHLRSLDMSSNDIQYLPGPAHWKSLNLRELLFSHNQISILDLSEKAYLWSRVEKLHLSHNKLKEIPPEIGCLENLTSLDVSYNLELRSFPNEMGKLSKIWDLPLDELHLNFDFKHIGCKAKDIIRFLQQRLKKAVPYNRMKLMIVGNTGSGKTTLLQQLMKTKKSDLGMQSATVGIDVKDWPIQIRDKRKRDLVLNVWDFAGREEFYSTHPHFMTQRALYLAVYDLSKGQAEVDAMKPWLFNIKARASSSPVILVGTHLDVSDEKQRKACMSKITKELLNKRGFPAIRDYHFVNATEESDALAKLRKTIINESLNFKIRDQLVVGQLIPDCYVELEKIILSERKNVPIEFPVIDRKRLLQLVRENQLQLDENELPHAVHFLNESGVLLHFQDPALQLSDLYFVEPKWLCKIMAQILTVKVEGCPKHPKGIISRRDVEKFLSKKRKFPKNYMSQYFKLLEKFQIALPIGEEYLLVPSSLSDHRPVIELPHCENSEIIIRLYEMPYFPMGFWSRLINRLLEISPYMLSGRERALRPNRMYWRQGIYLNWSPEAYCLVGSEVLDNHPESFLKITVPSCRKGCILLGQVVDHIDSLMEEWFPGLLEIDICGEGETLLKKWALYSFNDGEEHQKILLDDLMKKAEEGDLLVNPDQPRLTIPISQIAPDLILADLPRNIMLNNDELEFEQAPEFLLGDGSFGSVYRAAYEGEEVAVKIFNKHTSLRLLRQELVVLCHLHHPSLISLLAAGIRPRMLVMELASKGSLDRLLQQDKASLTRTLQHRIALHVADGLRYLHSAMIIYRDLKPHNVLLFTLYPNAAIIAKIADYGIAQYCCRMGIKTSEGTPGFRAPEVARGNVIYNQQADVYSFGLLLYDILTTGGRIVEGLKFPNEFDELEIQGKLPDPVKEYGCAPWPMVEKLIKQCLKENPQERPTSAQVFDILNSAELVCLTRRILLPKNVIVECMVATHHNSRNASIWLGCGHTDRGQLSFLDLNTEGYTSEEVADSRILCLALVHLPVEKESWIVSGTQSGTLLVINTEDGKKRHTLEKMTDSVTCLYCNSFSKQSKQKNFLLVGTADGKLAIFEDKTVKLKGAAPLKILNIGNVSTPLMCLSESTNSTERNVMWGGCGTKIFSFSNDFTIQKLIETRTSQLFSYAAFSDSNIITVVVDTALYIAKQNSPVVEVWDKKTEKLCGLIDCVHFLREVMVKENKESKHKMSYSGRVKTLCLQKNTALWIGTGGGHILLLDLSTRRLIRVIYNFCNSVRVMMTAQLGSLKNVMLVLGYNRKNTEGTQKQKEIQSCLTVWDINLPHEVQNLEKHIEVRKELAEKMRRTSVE

IC50, 100 to 1000 nM:
CCC(CC)Nc1nccc2[nH]nc(C)c12 [Example 41, (1-Ethyl-propyl)-(3-methyl-1H-pyrazolo[4,3-c]pyridin-4-yl)-amine]
Cn1ncnc1C1CCCN(C(=O)CCc2n[nH]c3ccnc(NC4CCCCC4)c23)C1 (stereo not drawn) [Example 239, 3-(4-Cyclohexylamino-1H-pyrazolo[4,3-c]pyridin-3-yl)-1-[3-(2-methyl-2H-1,2,4-triazol-3-yl)-piperidin-1-yl]-propan-1-one]
Cc1n[nH]c2ccnc(Nc3ccc(Cl)c(Cl)c3)c12 [Example 305, (3,4-Dichloro-phenyl)-(3-methyl-1H-pyrazolo[4,3-c]pyridin-4-yl)-amine]
Cc1n[nH]c2ccnc(OCCC(C)C)c12 [Example 282, 3-Methyl-4-(3-methyl-butoxy)-1H-pyrazolo[4,3-c] pyridine]
Cc1n[nH]c2ccnc(NCCCn3ccnc3)c12 [Example 15, (3-Imidazol-1-yl-propyl)-(3-methyl-1H-pyrazolo[4,3-c]pyridin-4-yl)-amine]
Cc1n[nH]c2ccnc(Oc3ccc(-n4ccnc4)cc3)c12 [Example 120, 4-(4-Imidazol-1-yl-phenoxy)-3-methyl-1H-pyrazolo[4,3-c]pyridine]
CCC[C@@H](C)Oc1nccc2[nH]nc(C)c12 [Example 286, 3-Methyl-4-((R)-1-methyl-butoxy)-1H-pyrazolo[4,3-c]pyridine]
CN(C)C(=O)CCc1n[nH]c2ccnc(NC3CCCCC3)c12 [Example 212, 3-(4-Cyclohexylamino-1H-pyrazolo[4,3-c]pyridin-3-yl)-N,N-dimethyl-propionamide]
Cc1n[nH]c2ccnc(O[C@@H]3CCOC3)c12 [Example 297, 3-Methyl-4-[(R)-(tetrahydro-furan-3-yl)oxy]-1H-pyrazolo[4,3-c]pyridine]
c1cc(CCc2n[nH]c3ccnc(NC4CCCCC4)c23)ccn1 [Example 218, Cyclohexyl-[3-(2-pyridin-4-yl-ethyl)-1H-pyrazolo[4,3-c]pyridin-4-yl]-amine]
c1ccc(-c2n[nH]c3ccnc(NC4CCCCC4)c23)cc1 [Example 136, Cyclohexyl-(3-phenyl-1H-pyrazolo[4,3-c]pyridin-4-yl)-amine]
CS(=O)(=O)N1CCC(CCc2n[nH]c3ccnc(NC4CCCCC4)c23)CC1 [Example 220, Cyclohexyl-{3-[2-(1-methanesulfonyl-piperidin-4-yl)-ethyl]-1H-pyrazolo[4,3-c]pyridin-4-yl}-amine]
Cc1n[nH]c2ccnc(Nc3ccn(C)n3)c12 [Example 61, (3-Methyl-1H-pyrazolo[4,3-c]pyridin-4-yl)-(1-methyl-1H-pyrazol-3-yl)-amine]
Cc1n[nH]c2ccnc(NCCc3cccc(Cl)c3)c12 [Example 331, [2-(3-Chloro-phenyl)-ethyl]-(3-methyl-1H-pyrazolo[4,3-c]pyridin-4-yl)-amine]
Cc1n[nH]c2ccnc(NCc3ccccc3Cl)c12 [Example 315, (2-Chloro-benzyl)-(3-methyl-1H-pyrazolo[4,3-c]pyridin-4-yl)-amine]
Cc1n[nH]c2ccnc(Nc3ccc(C(=O)N4CCOCC4)cc3)c12 [Example 112, [4-(3-Methyl-1H-pyrazolo[4,3-c]pyridin-4-ylamino)-phenyl]-morpholin-4-yl-methanone]
CCOc1ccccc1Nc1nccc2[nH]nc(C)c12 [Example 68, (2-Ethoxy-phenyl)-(3-methyl-1H-pyrazolo[4,3-c]pyridin-4-yl)-amine]
c1cncc(-c2n[nH]c3ccnc(NC4CCCCC4)c23)c1 [Example 135, Cyclohexyl-(3-pyridin-3-yl-1H-pyrazolo[4,3-c]pyridin-4-yl)-amine]
O=C(CCc1n[nH]c2ccnc(NC3CCCCC3)c12)N1CCOC(c2ccccc2)C1 (stereo not drawn) [Example 205, 3-(4-Cyclohexylamino-1H-pyrazolo[4,3-c]pyridin-3-yl)-1-(2-phenyl-morpholin-4-yl)-propan-1-one]
Cc1n[nH]c2ccnc(Nc3ccc(F)c(Cl)c3)c12 [Example 307, (3-Chloro-4-fluoro-phenyl)-(3-methyl-1H-pyrazolo[4,3-c]pyridin-4-yl)-amine]
O=C(CCc1n[nH]c2ccnc(NC3CCCCC3)c12)N1CCC[C@@H](c2ccccc2)C1 [Example 190, 3-(4-Cyclohexylamino-1H-pyrazolo[4,3-c]pyridin-3-yl)-1-((S)-3-phenyl-piperidin-1-yl)-propan-1-one]
Cc1n[nH]c2ccnc(OCC3CC3)c12 [Example 123, 4-Cyclopropyl-methoxy-3-methyl-1H-pyrazolo [4,3-c]pyridine]
Cc1n[nH]c2ccnc(Nc3ccc(N4CCOCC4)cc3)c12 [Example 85, (3-Methyl-1H-pyrazolo[4,3-c]pyridin-4-yl)-(4-morpholin-4-yl-phenyl)-amine]

IC50, < 100 nM:
O=C(CC1CC1)Nc1cccc(CCc2n[nH]c3ccnc(NC4CCCCC4)c23)c1 [Example 223, N-{3-[2-(4-Cyclohexylamino-1H-pyrazolo[4,3-c]pyridin-3-yl)-ethyl]-phenyl}-2-cyclopropyl-acetamide]
Cc1n[nH]c2ccnc(O[C@@H]3C[C@@H]4CC[C@H]3C4)c12 (racemic) [Example 296]
CC[C@@H](C)Oc1nccc2[nH]nc(C)c12 [Example 122, 4-((R)-sec-Butoxy)-3-methyl-1H-pyrazolo[4,3-c] pyridine]
O=C(CCc1n[nH]c2ccnc(NC3CCCCC3)c12)N1CCCC(Cc2ccccc2)C1 (stereo not drawn) [Example 194, 1-(3-Benzyl-piperidin-1-yl)-3-(4-cyclohexylamino-1H-pyrazolo[4,3-c]pyridin-3-yl)-propan-1-one]
C[C@@H]1CCN(C(=O)CCc2n[nH]c3ccnc(NC4CCCCC4)c23)C1 [Example 246, 3-(4-Cyclohexylamino-1H-pyrazolo[4,3-c]pyridin-3-yl)-1-((R)-3-methyl-pyrrolidin-1-yl)-propan-1-one]
CC(=O)Nc1cccc(CCc2n[nH]c3ccnc(NC4CCCCC4)c23)c1 [Example 222, N-{3-[2-(4-Cyclohexylamino-1H-pyrazolo[4,3-c]pyridin-3-yl)-ethyl]-phenyl}-acetamide]
Cc1ccc(Nc2nccc3[nH]nc(C)c23)cc1 [Example 318, (4-Methyl-phenyl)-(3-methyl-1H-pyrazolo[4,3-c]pyridin-4-yl)-amine]
O=C(CCc1n[nH]c2ccnc(NC3CCCCC3)c12)N1CCC(c2ccccc2)CC1 [Example 204, 3-(4-Cyclohexylamino-1H-pyrazolo[4,3-c]pyridin-3-yl)-1-(4-phenyl-piperidin-1-yl)-propan-1-one]
Brc1n[nH]c2ccnc(NC3CCCCC3)c12 [Example 134, (3-Bromo-1H-pyrazolo[4,3-c]pyridin-4-yl)-cyclohexyl-amine]

IC50, 1000 to 10000 nM:
COCCC(=O)N1CCC(Nc2nccc3[nH]nc(C)c23)CC1 [Example 102, 3-Methoxy-1-[4-(3-methyl-1H-pyrazolo[4,3-c]pyridin-4-ylamino)-piperidin-1-yl]-propan-1-one]
O=C1CCCN1c1n[nH]c2ccnc(NC3CCCCC3)c12 [Example 230, 1-(4-Cyclohexylamino-1H-pyrazolo[4,3-c]pyridin-3-yl)-pyrrolidin-2-one]
Cc1n[nH]c2ccnc(N(C)C3CCCCC3)c12 [Example 35, Cyclohexyl-methyl-(3-methyl-1H-pyrazolo[4,3-c]pyridin-4-yl)-amine]
Cc1n[nH]c2ccnc(-c3cnccn3)c12 [Example 131, 3-Methyl-4-pyrazin-2-yl-1H-pyrazolo[4,3-cc]pyridine]
FC(F)(F)Oc1ccccc1-c1n[nH]c2ccnc(NC3CCCCC3)c12 [Example 151, Cyclohexyl-[3-(2-trifluoromethoxy-phenyl)-1H-pyrazolo[4,3-c]pyridin-4-yl]-amine]
CC(=O)Nc1cccc(Nc2nccc3[nH]nc(C)c23)c1 [Example 78, N-[3-(3-Methyl-1H-pyrazolo[4,3-c]pyridin-4-ylamino)-phenyl]-acetamide]
Cc1n[nH]c2ccnc(NCCCO)c12 [Example 301, 3-(3-Methyl-1H-pyrazolo[4,3-c]pyridin-4-ylamino)-propan-1-ol]
O=C(CCc1n[nH]c2ccnc(NC3CCCCC3)c12)NC1CC1 [Example 171, 3-(4-Cyclohexylamino-1H-pyrazolo[4,3-c]pyridin-3-yl)-N-cyclopropyl-propionamide]
Cc1n[nH]c2ccnc(-c3cccc(NS(C)(=O)=O)c3)c12 [Example 52, N-[3-(3-Methyl-1H-pyrazolo[4,3-c]pyridin-4-yl)-phenyl]-methane-sulfonamide]
O=C(CCc1n[nH]c2ccnc(NC3CCCCC3)c12)Nc1cccnc1 [Example 188, 3-(4-Cyclohexylamino-1H-pyrazolo[4,3-c]pyridin-3-yl)-N-pyridin-3-yl-propionamide]
N#Cc1ccc(-c2n[nH]c3ccnc(NC4CCCCC4)c23)cc1 [Example 158]
Cc1n[nH]c2ccnc(N3CCc4ccccc4C3)c12 [Example 12, 2-(3-Methyl-1H-pyrazolo[4,3-c]pyridin-4-yl)-1,2,3,4-tetrahydro-isoquinoline]
Cc1n[nH]c2ccnc(NC3CCN(Cc4ccccc4)CC3)c12 [Example 98, (1-Benzyl-piperidin-4-yl)-(3-methyl-1H-pyrazolo[4,3-c]pyridin-4-yl)-amine]
